Experiment [1] concerns the target T1, WEE1 (Homo sapiens, UniProt P30291). The experiment in a line: Peptide Immunosandwich Assay (PIA) with GBM tumor lysates. It counts as biochemical. To be noted: 100 ug of lysates, 10 uM for 30 minutes. Here is the method:
Threshold interval is shown.
In brief, Streptavidin coated 96-well plates (R&D systems) were incubated with biotinylated human histone H2B derived peptides […] (SEQ ID NO: 62, Y37 site is underlined). H2B derived phospho-peptide KRSRKESp[…] (SEQ ID NO: 63) was used as positive control. Any unbound areas on the plate were blocked with 3% BSA. Next, purified WEE1 protein (100 ng) prepared in kinase buffer (20 mM HEPES, 225 mM NaCl, 1% Triton X-100, 10% glycerol, phosphatase and protease inhibitors) supplemented with 1 uM ATP and 1 uM MgCl2. After 2 hours of incubation, plates were washed with phosphate buffered saline containing 0.1% Tween 20 (PBST) and reblocked in 3% BSA. The pY37-H2B or pTyr antibodies (at 1:1000 dilution) were added and incubated for 1 hour. Unbound antibodies were washed and HRP-conjugated anti-mouse secondary antibodies (1:5000) were added. The magnitude of phosphorylation was detected using developer solution (OPD tablets, Sigma) and after 20 minutes of incubation, the plates were read at 450 nm.
To assess the WEE1 epigenetic activity in GBM patients, lysates were prepared from 8 GBM tumor biopsies and 3 normal brain samples as a control. The lysates were quantitated and 100 ug of lysates was used per reaction. Each reaction was performed in triplicates. […]

In experiment [2] the target is T1, WEE1. The experiment in a line: H4 Tyr88 peptide ELISA in vitro kinase assay with purified WEE1. Also noted: GST; purchased Invitrogen. It counts as biochemical. As to conditions: read at 450 nm. As to the method: Biotinylated unphosphorylated and Tyr88-phosphorylated H4 peptides were immobilized on streptavdin 96-well plates. […] ELISA was performed as described in text.
WEE1 and Ack1 are two non-receptor tyrosine kinases or NRTKs that have known nuclear functions. To determine whether WEE1 and Ack1 can directly target H4 for Tyr88-phosphorylation, this study performed in vitro kinase assay. In brief, the Streptavidin coated 96-well plates (R&D systems) were incubated with biotinylated H4-derived peptide […] (SEQ ID NO: 64) for 1 hour. The plates were washed and the purified WEE1 or Ack1 were added in kinase buffer (20 mM HEPES, 150 mM NaCl, 0.5% Triton X-100, 10% Glycerol, phosphatase and protease inhibitors) containing ATP and MgCl2. After 2 hours of incubation, plates were washed with phosphate buffered saline containing 0.1% Tween 20 (PBST) and blocked in 3% BSA. The pY88-H4 antibodies (at 1:500 dilution) were added and incubated for 1 hour. Unbound antibodies were washed and HRP-conjugated anti-mouse secondary Antibodies (1:2000) were added. Magnitude of phosphorylation was detected using developer solution (OPD tablets, Sigma) and the plates were read at 450 nm. As a negative control, no kinase and no peptide reactions were used. The biotinylated phosphopeptide […]p[…] (SEQ ID NO: 65) was used as a positive control.
(In an ELISA, binding on a coated surface is turned into a signal by an enzyme label.)

The target of experiment [3] is T1, WEE1. The experiment in a line: In vitro kinase assay, purified WEE1 and H2B. Set-up: GST; purchased Invitrogen. As to conditions: MK1775 0.625 μM, 1 hour at 30° C. It counts as biochemical. As to the method:
FIG. 13A is an immunoblot showing lysates from synchronized MEFs immunoprecipitated with pTyr37-H2B antibodies followed by immunoblotting with pTyr37-H2B antibody (top panel) or H2B antibody (bottom panel). FIG. 13B is an immunoblot showing cell lysates 6.30 hours post-release from H1975 cells synchronized by double thymidine alone (first column) or with 0.31 μM (second column), 0.62 μM (third column) and 1.25 μM (fourth column) MK1775 WEE1 inhibitor that were immunoprecipitated with pTyr37-H2B antibodies followed by immunoblotting with pTyr37-H2B, H2B, pTyr15-Cdc2, or Cdc2 antibodies. FIG. 13C is an immunoblot showing lysates collected at 0 and 6.30 hours post-release from synchronized MEFs transfected with control (first two columns) or WEE1 (last two columns) siRNAs that were immunoprecipitated with pTyr37-H2B antibodies followed by immunoblotting with pTyr37-H2B (top panel), H2B (second panel), WEE1 (third panel), or PTyr15-Cdc2 (bottom panel) antibodies. FIG. 13D is an immunoblot showing equimolar amounts of purified WEE1 (last three columns) and H2B (first three columns) proteins incubated in the presence (third column) or absence of WEE1 inhibitor (MK1775, 0.625 μM) for 1 hour at 30° C. and immunoblotted with pTyr37-H2B (top panel), H2B (middle panel), and WEE1 (bottom panel) antibodies. […]

Experiment [4] deals with IDH2 gene transcription. Description: qRT-PCR of IDH2 in cancer cell lines. It counts as cell-based. An excerpt:
(FIG. 42a-42e) RNA was isolated from cells treated with WEE1 inhibitor (or siRNA) followed by qRT-PCR using IDH2 and actin primers.
Total RNA was isolated followed by qRT-PCR with IDH2 and actin specific primers. As control, U118 cell line was used which has low levels of WEE1 (unpublished data).

The results in this text go back to patent US9594084B2, “Phosphorylation of histones and uses thereof” (H. LEE MOFFITT CANCER CENTER AND RESEARCH INSTITUTE, priority 2012, dated 2017).

T1 sequence (P30291 whole entry): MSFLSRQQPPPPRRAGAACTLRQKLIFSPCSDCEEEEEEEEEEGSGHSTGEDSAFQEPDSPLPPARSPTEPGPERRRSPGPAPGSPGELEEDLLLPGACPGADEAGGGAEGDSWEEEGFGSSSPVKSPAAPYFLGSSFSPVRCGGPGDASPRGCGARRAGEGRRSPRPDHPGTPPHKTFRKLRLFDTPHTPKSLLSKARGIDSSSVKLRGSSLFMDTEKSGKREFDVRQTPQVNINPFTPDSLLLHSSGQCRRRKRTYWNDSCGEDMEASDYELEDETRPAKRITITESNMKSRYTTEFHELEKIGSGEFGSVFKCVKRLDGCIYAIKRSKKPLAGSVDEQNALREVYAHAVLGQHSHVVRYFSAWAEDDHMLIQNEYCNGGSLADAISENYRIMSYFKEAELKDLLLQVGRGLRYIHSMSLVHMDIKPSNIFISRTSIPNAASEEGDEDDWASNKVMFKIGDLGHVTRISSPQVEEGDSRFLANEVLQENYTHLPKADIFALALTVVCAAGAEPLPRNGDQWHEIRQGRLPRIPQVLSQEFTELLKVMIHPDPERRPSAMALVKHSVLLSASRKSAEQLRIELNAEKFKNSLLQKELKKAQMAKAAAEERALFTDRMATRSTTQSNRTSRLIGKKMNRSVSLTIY

Turning to `C=CCn1c(=O)c2cnc(Nc3ccc(N4CCN(C)CC4)cc3)nc2n1-c1cccc(C(C)(C)O)n1` [MK-1775], the “WEE1 activity in GBM tumor lysates” value in experiment [1] is recorded as “significantly reduced”. Besides, the “H4 Tyr88-phosphorylation by WEE1” value in experiment [2] was “significantly decreased”. Further, the “H2B pTyr37-phosphorylation by purified WEE1” value in experiment [3] is on record as “abrogated”. Moreover, the “transcript levels of the IDH2 gene” value in experiment [4] (LNCaP (prostate), 1 uM, 24 hours) is “significant increase”; in experiment [4] (U87 (GBM), 1 uM, 24 hours), “significant increase”; in experiment [4] (WM1366 (melanoma), 1 uM, 24 hours), “significant increase”. Further, in experiment [4] (U118 cell line (low levels of WEE1), 1 uM, 24 hours), the “IDH2 mRNA” value is “not increased”. Besides, the IDH2 transcript levels entry in experiment [4] (summary statement) is recorded as “increased”.
